{"source": "paper PMC12655351", "about": "“Synthesis and Anticancer Activity Evaluation of New 5-((5-Nitrofuran-2-yl)allylidene)-2-thioxo-4-thiazolidinones” (Pharmaceuticals, 2025)", "key": {"MCF-7": {"test_system": "MCF-7", "experiment": "[3H]-thymidine incorporation assay", "type": "cell-based", "details": "Homo sapiens, MCF7; MCF-7, 24 h of treatment", "method": "(§1) Another method of assessing the cytotoxic effects of tested compounds, [^3H]-thymidine incorporation assay, was applied. This method provided the capability to analyze the antiproliferative activity of novel structures on MCF-7 and MDA-MB-231 through their ability to incorporate thymidine into the cells. The acquired results further confirmed the potent activity of the 14b compound as the most prominent structure among the novel compounds (Table 2). The test was carried out in triplicate at concentrations of 5, 15, and 30 μM for the MDA-MB-231 cell line and 1, 5, and 10 μM for the MCF-7 cell line.\n(§2) Following the selection of cell lines for further study, the effects of all compounds on cell proliferation were evaluated on MCF-7 and MDA-MB-231 cell lines. Cells were seeded in 24-well plates and cultured as described above. Cells were treated with the compounds at concentrations 1, 5, and 10 μM, and 5, 15, and 30 μM for MCF-7 and MDA-MB-231 cell lines, respectively, for 24 h. Subsequently, 0.5 μCi [^3H]-thymidine was added for 4 h at 37 °C. Then, plates with cells were placed on the ice, the liquid was aspirated, and cells were washed twice with 1mL of 0.05 M Tris-HCl buffer comprising 0.11 M NaCl and precipitated by adding 1 mL per well of 5% trichloroacetic. After precipitation, the cells were dissolved with 1 mL of 0.1 M NaOH with 1% SDS (Sigma-Aldrich, St. Louis, MO, USA) at room temperature (RT). The cell lysates were transferred into scintillation vials containing 2 mL of scintillation fluid (Ultima Gold™ XR, PerkinElmer, MA, USA), and cell-associated radioactivity was measured using a Scintillation Counter 1900 TR, TRI-CARB (Packard, Perkin Elmer, Inc., San Jose, CA, USA). The [^3H]-thymidine uptake was expressed as a percentage of the control value."}, "MDA-MB-231": {"test_system": "MDA-MB-231", "experiment": "[3H]-thymidine incorporation assay", "type": "cell-based", "details": "Homo sapiens; MDA-MB-231, 24 h of treatment", "method": "as §1, §2"}, "RPMI-8226": {"test_system": "RPMI-8226", "experiment": "cells", "details": "Homo sapiens, RPMI-8226, 48 h"}, "NCI-H266": {"test_system": "NCI-H266", "experiment": "NCI-60 SRB screen"}, "PC-3": {"test_system": "PC-3", "experiment": "cells", "details": "Homo sapiens, PC-3, 48 h"}, "MALME-3M": {"test_system": "MALME-3M", "experiment": "NCI-60 SRB screen", "details": "48 h"}, "K-562": {"test_system": "K-562", "details": "K-562, 48 h"}, "TK-10": {"test_system": "TK-10", "experiment": "cells", "details": "Homo sapiens, TK-10, 48 h, read-out: LC50, TK-10, 48 h"}, "CCRF-CEM": {"test_system": "CCRF-CEM", "experiment": "cells", "details": "Homo sapiens, 48 h"}, "OVCAR-8": {"test_system": "OVCAR-8", "details": "OVCAR-8, 48 h"}, "NCI/ADR-RES": {"test_system": "NCI/ADR-RES", "details": "48 h"}, "T-47D": {"test_system": "T-47D", "experiment": "cells", "details": "Homo sapiens, T47D, 48 h"}, "Renal Cancer": {"test_system": "Renal Cancer", "details": "Renal Cancer subpanel"}, "Melanoma": {"test_system": "Melanoma", "experiment": "cells", "details": "Homo sapiens"}, "Breast cancer": {"test_system": "Breast cancer", "experiment": "cells", "details": "Homo sapiens"}, "[1]": {"test_system": "Non-small cell lung cancer", "details": "Non-small cell lung cancer subpanel"}, "SK-MEL-5": {"test_system": "SK-MEL-5", "experiment": "cells", "details": "Homo sapiens, SK-MEL-5, 48 h"}, "HCC-2998": {"test_system": "HCC-2998", "details": "HCC-2998, 10 μM, 48 h"}, "Leukemia": {"test_system": "Leukemia", "experiment": "cells", "details": "Homo sapiens"}, "MOLT-4": {"test_system": "MOLT-4", "experiment": "cells", "details": "Homo sapiens, MOLT-4, 48 h"}, "OVCAR-5": {"test_system": "OVCAR-5", "experiment": "NCI-60 SRB screen"}, "SF-268": {"test_system": "SF-268", "details": "SF-268, 48 h"}}, "note": "Values joined by “and” are separate entries in the source; they are usually repeats but may differ in a detail not shown here. Equal values may be shown once."}
{"smiles": "CC(C(=O)O)N1C(=O)/C(=C/C=C/c2ccc([N+](=O)[O-])o2)SC1=S", "note": "(stereo not shown) [2b, 2-((Z)-5-((E)-3-(5-Nitrofuran-2-yl)allylidene)-4-oxo-2-thioxothiazolidin-3-yl)propanoic acid]", "values": [{"measurement": "IC50", "setting": "MCF-7", "result": 6610, "unit": "nM"}, {"measurement": "IC50", "setting": "MDA-MB-231", "result": 5560, "unit": "nM"}]}
{"smiles": "O=C(O)CCCN1C(=O)/C(=C/C=C/c2ccc([N+](=O)[O-])o2)SC1=S", "note": "[13b, 4-((Z)-5-((E)-3-(5-Nitrofuran-2-yl)allylidene)-4-oxo-2-thioxothiazolidin-3-yl)butanoic acid]", "values": [{"measurement": "GI50", "setting": "RPMI-8226", "result": 360, "unit": "nM"}, {"measurement": "CC50", "setting": "RPMI-8226; read-out: LC50", "result": "> 100000", "unit": "nM"}, {"measurement": "GI50", "setting": "NCI-H266; Homo sapiens, 48 h, NCI-H266, 48 h", "result": 2790, "unit": "nM"}, {"measurement": "CC50", "setting": "NCI-H266; Homo sapiens, 48 h, read-out: LC50, NCI-H266, 48 h", "result": 76100, "unit": "nM"}, {"measurement": "GI50", "setting": "NCI-H266; NCI-H266, 48 h", "result": 1650, "unit": "nM"}, {"measurement": "TGI", "setting": "NCI-H266; NCI-H266, 48 h", "result": "11900 nM and 9780 nM"}, {"measurement": "IC50", "setting": "MCF-7", "result": 3970, "unit": "nM"}, {"measurement": "IC50", "setting": "MDA-MB-231", "result": 1770, "unit": "nM"}, {"measurement": "growth GP", "setting": "CAKI-1; CAKI-1, 10 μM, 48 h", "result": -96.66, "unit": "%"}, {"measurement": "GI50", "setting": "CAKI-1; CAKI-1, 48 h", "result": 770, "unit": "nM"}, {"measurement": "TGI", "setting": "CAKI-1; CAKI-1, 48 h", "result": "1970 nM and 2040 nM"}, {"measurement": "GI50", "setting": "PC-3", "result": 620, "unit": "nM"}, {"measurement": "GI50", "setting": "MALME-3M; Homo sapiens, Malme-3M", "result": 240, "unit": "nM"}, {"measurement": "GI50", "setting": "MALME-3M; MALME-3M", "result": 150, "unit": "nM"}, {"measurement": "TGI", "setting": "MALME-3M; MALME-3M", "result": "600 nM and 350 nM"}, {"measurement": "GI50", "setting": "K-562", "result": 90, "unit": "nM"}, {"measurement": "TGI", "setting": "K-562", "result": "> 100000", "unit": "nM"}, {"measurement": "CC50", "setting": "TK-10", "result": 5840, "unit": "nM"}, {"measurement": "GI50", "setting": "CCRF-CEM", "result": 190, "unit": "nM"}, {"measurement": "growth GP", "setting": "OVCAR-4; OVCAR-4, 10 μM, 48 h", "result": -97.74, "unit": "%"}, {"measurement": "GI50", "setting": "OVCAR-4; OVCAR-4, 48 h", "result": 1560, "unit": "nM"}, {"measurement": "TGI", "setting": "OVCAR-4; OVCAR-4, 48 h", "result": "2580 nM and 2940 nM"}, {"measurement": "CC50", "setting": "OVCAR-4; human, 48 h", "result": 5540, "unit": "nM"}, {"measurement": "GI50", "setting": "OVCAR-8", "result": 270, "unit": "nM"}, {"measurement": "TGI", "setting": "OVCAR-8", "result": "2250 nM and 1240 nM"}, {"measurement": "GI50", "setting": "NCI/ADR-RES", "result": 260, "unit": "nM"}, {"measurement": "TGI", "setting": "NCI/ADR-RES", "result": "1230 nM and 770 nM"}, {"measurement": "GI50", "setting": "T-47D; T-47D", "result": 340, "unit": "nM"}, {"measurement": "CC50", "setting": "T-47D; read-out: LC50", "result": "> 100000", "unit": "nM"}, {"measurement": "MG_MID TGI", "setting": "Renal Cancer", "result": 2600, "unit": "nM"}, {"measurement": "GI50", "setting": "Melanoma; read-out: MG_MID GI50", "result": 590, "unit": "nM"}, {"measurement": "CC50", "setting": "Melanoma; read-out: MG_MID LC50", "result": 3600, "unit": "nM"}, {"measurement": "GI50", "setting": "Breast cancer; read-out: MG_MID GI50", "result": 530, "unit": "nM"}, {"measurement": "CC50", "setting": "Breast cancer; read-out: MG_MID LC50", "result": 36000, "unit": "nM"}, {"measurement": "MG_MID TGI", "setting": "[1]", "result": 4480, "unit": "nM"}, {"measurement": "GI50", "setting": "SK-MEL-5", "result": 610, "unit": "nM"}, {"measurement": "CC50", "setting": "SK-MEL-5; read-out: LC50, SK-MEL-5, 48 h", "result": 4610, "unit": "nM"}, {"measurement": "growth GP", "setting": "HCC-2998", "result": -95.27, "unit": "%"}, {"measurement": "GI50", "setting": "Leukemia; read-out: MG_MID GI50", "result": 9340, "unit": "nM"}, {"measurement": "CC50", "setting": "Leukemia; read-out: MG_MID LC50", "result": 87000, "unit": "nM"}, {"measurement": "TGI", "setting": "UACC-257; UACC-257, 48 h", "result": "3150 nM and 1730 nM"}, {"measurement": "CC50", "setting": "UACC-257; human, 48 h", "result": 4660, "unit": "nM"}, {"measurement": "GI50", "setting": "MOLT-4", "result": 410, "unit": "nM"}, {"measurement": "CC50", "setting": "MOLT-4; read-out: LC50, MOLT-4, 48 h", "result": 8990, "unit": "nM"}, {"measurement": "growth GP", "setting": "OVCAR-5; OVCAR-5, 10 μM, 48 h", "result": -97.64, "unit": "%"}, {"measurement": "TGI", "setting": "OVCAR-5; OVCAR-5, 48 h", "result": "3320 nM and 2020 nM"}, {"measurement": "TGI", "setting": "SF-268", "result": "2840 nM and 2890 nM"}]}
